One experiment relates to Rat PMNL. The experiment in a line: Myeloperoxidase (MPO) Release from rat PMNL. It counts as cell-based. Particulars: for inhibition at 1 µM / inhibition at 3 µM / inhibition at 10 µM / inhibition at 30 µM / inhibition at 100 µM / inhibition at 300 µM: Rattus norvegicus, PMNL. Here is the method: Rat PMNL were obtained from exudates resulting from peritoneal injection of 6 mL of 8% sodium caseinate. Eighteen hours after injection rats were killed by carbon dioxide inhalation and the peritoneal cavity lavaged with Hank's balanced salt solution (HBSS). After concentration of the PMNL by centrifugation, contaminating erythrocytes were removed by hypotonic lysis. The PMNL were then washed twice by centrifugation (400×g for 10 minutes) and resuspended in HBSS. Cell viability was greater than 90% by Trypan Blue exclusion and greater than 90% of the cells were PMNL by Wright-Giemsa stain.
MPO release was determined using the MPO catalyzed oxidation of o-dianisidine. The experiments were carried out in 96-well microtiter plates (Webster and Henson, 1978). In each well, 50 microliter (μ1) aliquots of a PMNL suspension (2×10^7 cell/mL in HBSS) were incubated with 50 μof HBSS containing vehicle (0.3% DMSO) or inhibitor for 30 minutes at 37° C. The final DMSO concentration never exceeded 0.3% and was constant throughout each experiment. To activate the PMNL, 50 μl of one of the following were added for 30 minutes at 37° C.: N-formyl-Met-Leu-Phe (fMLP; 0.1 μM); phorbol myristate acetate (PMA, 200 ng/mL); or rat serum opsonized zymosan (OZ; 2.6 mg/mL, prepared by the method of Ward et al., 1983). The stimuli were added in 50 μl HBSS which also contained the compounds or vehicle, as appropriate, to avoid changing the inhibitor concentration. Cell activation was terminated by centrifugation of the plates at 600×g for 5 minutes at 22° C. Aliquots (100 μl) of supernatant were removed from each well and transferred to a 96-well flatbottomed microtiter plate for the MPO assay. To each aliquot of supernatant was added 100 μl of a freshly prepared solution containing 50 μl of 0.2M sodium phosphate buffer (pH 6.2), 25 μl of 3.9 mM O-dianisidine and 25 μl of 0.015M hydrogen peroxide. Blanks were obtained using the same solution without hydrogen peroxide. The plates were mixed and then incubated at room temperature in the dark for about 15 minutes. Absorbances of the samples were measured at 450 nm.
Rat PMNL were isolated in HBSS containing Ca^+2. As summarized in the figure below, fMLP stimulation of rat PMNL in the presence of cytochalasin B or with opsonized zymosan or with ionomycin results in the release of myeloperoxidase (fMLP/MPO, OZ/MPO, and ION/MPO; columns 2, 4, and 6 respectively).

The subject of experiment [1] is Sprague Dawley rats, carrageenin-induced paw edema. The experiment in a line: Carrageenin Induced Rat Paw Edema. Particulars: i.p, one hour prior to carrageenin; read 3 hours after. The class given is in vivo. The procedure: Charles River male Sprague Dawley rats weighing 90 to 100 grams were used. Inflammation of the left hind paw was induced by a 1% carrageenin solution (0.05 cc), injected into the plantar surface of the paw. The contralateral paw was injected with an equal volume of saline. Drugs were administered orally or i.p. (1 cc/100 grams) one hour prior to paw injection. Three hours following the carrageenin injection the difference in volume of the control and inflamed paw was measured. Each paw was immersed in a well of mercury and the volume of mercury displaced was recorded. Paws were uniformly dipped into the mercury up to the beginning of the hairline. A venous pressure transducer, coupled to an oscillographic recorder, was employed to measure the small volumes of mercury displaced. Each group measurement consists of the average of four rats, each with three separate measurements.
For orientation: In the carrageenan paw model, swelling and tenderness develop within hours.

Experiment [2] concerns Lewis rats, adjuvant-induced arthritis. Briefly: Lewis Rat Adjuvant-Induced Arthritis Model. The class given is in vivo. Here is the method:
Female inbred Lewis rats (Charles River) weighing 150-200 grams were injected intradermally in the tail with either 0.1 mL of Mycobacterium butyricum (Difco) in mineral oil (5 mg.mL) or with mineral oil alone. Starting on the day of innoculation and for 32 days, paw edema was determined for right and left hind limbs using the mercury displacemnt method. From day 1 some animals were treated with 30 mg/Kg p.o. MDL 29,355 once daily.

In experiment [3] the test system is Sprague-Dawley rats, Arthus reaction. Briefly: Arthus Reaction in Rat Skin. The class given is in vivo. The procedure:
Anesthetized male Sprague-Dawley rats (Charles River) weighing 200-250 grams received 100 mg/Kg i.v. sterile bovine serum albumin (BSA) solution (5 mg/mL). immediately after injection, the animals received an intradermal injection of 100 ug of rabbit anit-BSA in saline. This produces an immune complex mediated inflammation (Arthus reaction) where immune complexes fix complement releasing factors that attract neutrophils. The neutrophils then are activated causing local tissue damage as manifested in a hemorrhagic spot. The extent of the reaction is reflected in the size of the spot as measured by image analysis techniques.

The mark [4] stands for this setting: fMLP + cytochalasin B, read-out: fMLP/MPO inhibition.
[5] abbreviates: ionomycin, read-out: ION/MPO inhibition.
[6] abbreviates: opsonized zymosan, read-out: OZ/MPO inhibition.
The mark [7] stands for this setting: fMLP + cytochalasin B, opsonized zymosan, ionomycin.

Like-named read-outs stand apart in the source and are kept apart here.

These results are taken from patent US5500429A, “Calcium uptake inhibitors” (Merrell Pharmaceuticals Inc., priority 1993, dated 1996).

As to `CN(C)c1ccc(C(=O)C=Cc2ccncc2)cc1` [MDL 101,240, 1-(4-dimethylaminophenyl)-3-(4-pyridinyl)-2-propene-1-one], in the experiment with Rat PMNL (setting [4]), the inhibition at 1 µM was found to be 13.1%, the inhibition at 3 µM was determined as 11.7%, the inhibition at 10 µM came out at 31.2% and the inhibition at 30 µM was 67.3%. In the experiment on Rat PMNL (setting [4]), the inhibition at 100 µM came out at 112%. For the same compound, in the experiment with Rat PMNL (setting [5]), the inhibition at 1 µM is -8%, the inhibition at 3 µM is -5%, the inhibition at 10 µM is -2% and the inhibition at 30 µM is 12%. Further, the inhibition at 100 µM in the experiment on Rat PMNL (setting [5]) was 35.6%. In the experiment with Rat PMNL (setting [6]), the inhibition at 1 µM amounted to 2.5%, the inhibition at 3 µM worked out at 7.3%, the inhibition at 10 µM was 28.1% and the inhibition at 30 µM was determined as 82.5%. In addition, the inhibition at 100 µM in the experiment with Rat PMNL (setting [6]) stood at 142%. The “inhibition of myeloperoxidase release” value with Rat PMNL (setting [7]) is “dose dependent inhibition of myeloperoxidase release”.

Take `O=C(C=Cc1ccncc1)c1ccccc1` [MDL 29,355, 1-phenyl-3-(4-pyridinyl)-2-propene-1-one]: in the experiment on Rat PMNL (setting [4]), the inhibition at 1 µM was 0.1%, the inhibition at 3 µM turned out to be 5%, the inhibition at 10 µM is 16.5% and the inhibition at 30 µM stood at 53.3%. In the experiment with Rat PMNL (setting [4]), the inhibition at 100 µM was found to be 101% and the inhibition at 300 µM came to 104%. Moreover, in the experiment on Rat PMNL (setting [5]), the inhibition at 1 µM is -4.5%, the inhibition at 3 µM was -1.7%, the inhibition at 10 µM turned out to be 14.8% and the inhibition at 30 µM is 24.4%. Moreover, in the experiment on Rat PMNL (setting [5]), the inhibition at 100 µM is 89.1% and the inhibition at 300 µM is 99.6%. Further, in the experiment on Rat PMNL (setting [6]), the inhibition at 1 µM is -1.7%, the inhibition at 3 µM was 3.4%, the inhibition at 10 µM stood at 3.6% and the inhibition at 30 µM came out at 3.2%. In addition, in the experiment on Rat PMNL (setting [6]), the inhibition at 100 µM came out at 7.1% and the inhibition at 300 µM amounted to 42.4%. Further, the “inhibition of myeloperoxidase release” value in the experiment with Rat PMNL (setting [7]) was “dose dependent inhibition of myeloperoxidase release”. Moreover, in experiment [1], the “% Inhibition of carrageenin-induced paw edema” value is given as 51.4 ± 8.5%. In addition, the “paw swelling reduction, day 20” value in experiment [2] (30 mg/Kg p.o. once daily from day 1, day 20) was 36.4% ±16.6%. Moreover, in experiment [2] (30 mg/Kg p.o. once daily from day 1, day 32, not significantly different from untreated controls), the “paw swelling inhibited, day 32” value is on record as 30.9%±22.4%. The “animals never displaying adjuvant arthritis” value in experiment [2] (30 mg/Kg p.o. once daily, all control animals displayed arthritis) is “one of the 3 treated animals never displayed adjuvant arthritis”. In addition, the “hemorrhagic spot size reduction” value in experiment [3] (i.p. 100 mg/Kg, 30 minutes before Arthus reaction) is on record as 55.0%±16.8%. Also, in experiment [3] (intradermal 100ug with the antibody), the “hemorrhagic spot size reduction” value is given as 41.7% ±12.5%.
